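Exposure lasted 48 hours, with cells grown in 96-well plates and compounds tested at five concentrations. TGI is the concentration that stops growth completely.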
What was measured:
Assay in all cases: DTP human tumour cell line panel, 48 h
ACHN renal = test system: ACHN renal
HT29 colon = test system: HT29 colon
SF-539 CNS = test system: SF-539 CNS
MDA-MB-231 breast = test system: MDA-MB-231 breast
K-562 leukemia = test system: K-562 leukemia
TK-10 renal = test system: TK-10 renal
NCI-H23 lung = test system: NCI-H23 lung
OVCAR-4 ovarian = test system: OVCAR-4 ovarian
HCC-2998 colon = test system: HCC-2998 colon
MOLT-4 leukemia = test system: MOLT-4 leukemia
MALME-3M melanoma = test system: MALME-3M melanoma
A549 NSCLC = test system: A549 NSCLC
NCI-H460 lung = test system: NCI-H460 lung
SK-OV-3 ovarian = test system: SK-OV-3 ovarian
CCRF-CEM leukemia = test system: CCRF-CEM leukemia
HCT-15 colon = test system: HCT-15 colon
BT-549 breast = test system: BT-549 breast
SK-MEL-5 melanoma = test system: SK-MEL-5 melanoma
U251 CNS = test system: U251 CNS
RPMI-8226 leukemia = test system: RPMI-8226 leukemia
IGROV1 ovarian = test system: IGROV1 ovarian
KM12 colon = test system: KM12 colon
SF-268 CNS = test system: SF-268 CNS
SR leukemia = test system: SR leukemia
OVCAR-3 ovarian = test system: OVCAR-3 ovarian
MCF7 breast = test system: MCF7 breast
SNB-75 CNS = test system: SNB-75 CNS
EKVX NSCLC = test system: EKVX NSCLC
PC-3 prostate = test system: PC-3 prostate
HOP-92 NSCLC = test system: HOP-92 NSCLC
T-47D breast = test system: T-47D breast
SN12C renal = test system: SN12C renal
LOX IMVI melanoma = test system: LOX IMVI melanoma
UACC-62 melanoma = test system: UACC-62 melanoma
MDA-N = test system: MDA-N
SW-620 colon = test system: SW-620 colon
SF-295 CNS = test system: SF-295 CNS
UO-31 renal = test system: UO-31 renal
HOP-62 NSCLC = test system: HOP-62 NSCLC
OVCAR-8 ovarian = test system: OVCAR-8 ovarian
UACC-257 melanoma = test system: UACC-257 melanoma
NCI-H226 lung = test system: NCI-H226 lung
SK-MEL-2 melanoma = test system: SK-MEL-2 melanoma
SK-MEL-28 melanoma = test system: SK-MEL-28 melanoma
A498 renal = test system: A498 renal
RXF 393 renal = test system: RXF 393 renal
NCI-H522 lung = test system: NCI-H522 lung
NCI/ADR-RES ovarian = test system: NCI/ADR-RES ovarian
HS 578T breast = test system: HS 578T breast
CAKI-1 renal = test system: CAKI-1 renal
786-0 renal = test system: 786-0 renal
HCT-116 colon = test system: HCT-116 colon
M14 melanoma = test system: M14 melanoma
OVCAR-5 ovarian = test system: OVCAR-5 ovarian
MDA-MB-435 = test system: MDA-MB-435
SNB-19 CNS = test system: SNB-19 CNS
HL-60(TB) leukemia = test system: HL-60(TB) leukemia
DU-145 prostate = test system: DU-145 prostate
COLO 205 colon = test system: COLO 205 colon

With `CCc1cccc(C(C)C)c1NC(=O)C(=O)Nn1c(=S)[nH]c2ccccc2c1=O` the TGI (ACHN renal) was > 100 µM, the TGI (HT29 colon) was > 100 µM and the TGI (SF-539 CNS) was > 100 µM. For the same molecule, the TGI (MDA-MB-231 breast) was > 100 µM, the TGI (K-562 leukemia) was > 100 µM and the TGI (TK-10 renal) was > 100 µM. The TGI (NCI-H23 lung) was > 100 µM, the TGI (OVCAR-4 ovarian) was > 100 µM and the TGI (HCC-2998 colon) was > 100 µM. For the same molecule, the TGI (MOLT-4 leukemia) was > 100 µM, the TGI (MALME-3M melanoma) was > 100 µM and the TGI (A549 NSCLC) was > 100 µM. The TGI (NCI-H460 lung) was > 100 µM, the TGI (SK-OV-3 ovarian) was > 100 µM and the TGI (CCRF-CEM leukemia) was > 100 µM. For the same molecule, the TGI (HCT-15 colon) was > 100 µM, the TGI (BT-549 breast) was > 100 µM and the TGI (SK-MEL-5 melanoma) was > 100 µM. The TGI (U251 CNS) was > 100 µM, the TGI (RPMI-8226 leukemia) was > 100 µM and the TGI (IGROV1 ovarian) was > 100 µM. The TGI (KM12 colon) was > 100 µM, the TGI (SF-268 CNS) was > 100 µM and the TGI (SR leukemia) was > 100 µM. The TGI (OVCAR-3 ovarian) was > 100 µM, the TGI (MCF7 breast) was > 100 µM and the TGI (SNB-75 CNS) was > 100 µM. For the same molecule, the TGI (EKVX NSCLC) was > 100 µM, the TGI (PC-3 prostate) was > 100 µM and the TGI (HOP-92 NSCLC) was > 100 µM. The TGI (T-47D breast) was > 100 µM, the TGI (SN12C renal) was > 100 µM and the TGI (LOX IMVI melanoma) was > 100 µM. The TGI (UACC-62 melanoma) was > 100 µM, the TGI (MDA-N) was > 100 µM and the TGI (SW-620 colon) was > 100 µM. For the same molecule, the TGI (SF-295 CNS) was > 100 µM, the TGI (UO-31 renal) was > 100 µM and the TGI (HOP-62 NSCLC) was > 100 µM. The TGI (OVCAR-8 ovarian) was > 100 µM, the TGI (UACC-257 melanoma) was > 100 µM and the TGI (NCI-H226 lung) was > 100 µM. For the same molecule, the TGI (SK-MEL-2 melanoma) was > 100 µM, the TGI (SK-MEL-28 melanoma) was > 100 µM and the TGI (A498 renal) was > 100 µM. For the same molecule, the TGI (RXF 393 renal) was > 100 µM, the TGI (NCI-H522 lung) was > 100 µM and the TGI (NCI/ADR-RES ovarian) was > 100 µM. The TGI (HS 578T breast) was > 100 µM, the TGI (CAKI-1 renal) was > 100 µM and the TGI (786-0 renal) was > 100 µM. The TGI (HCT-116 colon) was > 100 µM, the TGI (M14 melanoma) was > 100 µM and the TGI (OVCAR-5 ovarian) was > 100 µM. For the same molecule, the TGI (MDA-MB-435) was > 100 µM.
In the case of `COc1ncnc2c(Cl)c(C(O)c3ccccc3)c(Cl)cc12` (stereo not given), the TGI (ACHN renal) is reported as 97.2 µM, the TGI (HT29 colon) is reported as > 100 µM and the TGI (SF-539 CNS) is reported as 50.2 µM. The TGI (MDA-MB-231 breast) was 58.6 µM, the TGI (K-562 leukemia) was 69.3 µM and the TGI (TK-10 renal) was 63.4 µM. For the same molecule, the TGI (NCI-H23 lung) was > 100 µM, the TGI (OVCAR-4 ovarian) was > 100 µM and the TGI (MOLT-4 leukemia) was > 100 µM. The TGI (MALME-3M melanoma) was 83 µM, the TGI (A549 NSCLC) was > 100 µM and the TGI (NCI-H460 lung) was > 100 µM. The TGI (SK-OV-3 ovarian) was 49 µM, the TGI (HCT-15 colon) was > 100 µM and the TGI (BT-549 breast) was 66.1 µM. For the same molecule, the TGI (SK-MEL-5 melanoma) was > 100 µM, the TGI (U251 CNS) was > 100 µM and the TGI (RPMI-8226 leukemia) was 66.4 µM. The TGI (IGROV1 ovarian) was > 100 µM, the TGI (SNB-19 CNS) was 79.9 µM and the TGI (KM12 colon) was > 100 µM. For the same molecule, the TGI (SF-268 CNS) was 57.7 µM, the TGI (SR leukemia) was 22.7 µM and the TGI (OVCAR-3 ovarian) was > 100 µM. The TGI (MCF7 breast) was > 100 µM, the TGI (SNB-75 CNS) was 97.8 µM and the TGI (EKVX NSCLC) was > 100 µM. The TGI (PC-3 prostate) was > 100 µM, the TGI (HOP-92 NSCLC) was 65.4 µM and the TGI (T-47D breast) was > 100 µM. The TGI (HL-60(TB) leukemia) was > 100 µM, the TGI (SN12C renal) was 86.8 µM and the TGI (LOX IMVI melanoma) was > 100 µM. For the same molecule, the TGI (UACC-62 melanoma) was 52.1 µM, the TGI (MDA-N) was 18.7 µM and the TGI (DU-145 prostate) was > 100 µM. The TGI (SW-620 colon) was 92.6 µM, the TGI (SF-295 CNS) was 68.2 µM and the TGI (UO-31 renal) was > 100 µM. For the same molecule, the TGI (HOP-62 NSCLC) was 32.5 µM, the TGI (OVCAR-8 ovarian) was > 100 µM and the TGI (UACC-257 melanoma) was > 100 µM. For the same molecule, the TGI (COLO 205 colon) was > 100 µM, the TGI (SK-MEL-2 melanoma) was > 100 µM and the TGI (SK-MEL-28 melanoma) was > 100 µM. For the same molecule, the TGI (A498 renal) was 53.2 µM, the TGI (RXF 393 renal) was 35.5 µM and the TGI (NCI-H522 lung) was > 100 µM. The TGI (NCI/ADR-RES ovarian) was > 100 µM, the TGI (HS 578T breast) was 49.9 µM and the TGI (CAKI-1 renal) was > 100 µM. The TGI (HCT-116 colon) was 44.1 µM, the TGI (M14 melanoma) was 89.9 µM and the TGI (OVCAR-5 ovarian) was > 100 µM. It also gave a TGI (MDA-MB-435) of 21.3 µM.
